Data reported in article PMC8934631, “Transcriptomic and genomic studies classify NKL54 as a histone deacetylase inhibitor with indirect influence on MEF2-dependent transcription” (Nucleic Acids Research, 2022).

What was measured:
[1] = target: T1, HDAC1 (Homo sapiens, UniProt Q13547); assay: fluorogenic deacetylase assay, trypsin-coupled AMC release; type: biochemical
T1 construct: purchased from BPS Bioscience

[2] = target: T2, HDAC2 (Homo sapiens, UniProt Q92769); assay: as above; type: biochemical
T2 construct: purchased from BPS Bioscience

[3] = target: T3, HDAC6 (Homo sapiens, UniProt Q9UBN7); assay: biochemical; design: in vitro inhibition of purified HDAC isozymes, dose response
T3 sequence (Q9UBN7 1-1215): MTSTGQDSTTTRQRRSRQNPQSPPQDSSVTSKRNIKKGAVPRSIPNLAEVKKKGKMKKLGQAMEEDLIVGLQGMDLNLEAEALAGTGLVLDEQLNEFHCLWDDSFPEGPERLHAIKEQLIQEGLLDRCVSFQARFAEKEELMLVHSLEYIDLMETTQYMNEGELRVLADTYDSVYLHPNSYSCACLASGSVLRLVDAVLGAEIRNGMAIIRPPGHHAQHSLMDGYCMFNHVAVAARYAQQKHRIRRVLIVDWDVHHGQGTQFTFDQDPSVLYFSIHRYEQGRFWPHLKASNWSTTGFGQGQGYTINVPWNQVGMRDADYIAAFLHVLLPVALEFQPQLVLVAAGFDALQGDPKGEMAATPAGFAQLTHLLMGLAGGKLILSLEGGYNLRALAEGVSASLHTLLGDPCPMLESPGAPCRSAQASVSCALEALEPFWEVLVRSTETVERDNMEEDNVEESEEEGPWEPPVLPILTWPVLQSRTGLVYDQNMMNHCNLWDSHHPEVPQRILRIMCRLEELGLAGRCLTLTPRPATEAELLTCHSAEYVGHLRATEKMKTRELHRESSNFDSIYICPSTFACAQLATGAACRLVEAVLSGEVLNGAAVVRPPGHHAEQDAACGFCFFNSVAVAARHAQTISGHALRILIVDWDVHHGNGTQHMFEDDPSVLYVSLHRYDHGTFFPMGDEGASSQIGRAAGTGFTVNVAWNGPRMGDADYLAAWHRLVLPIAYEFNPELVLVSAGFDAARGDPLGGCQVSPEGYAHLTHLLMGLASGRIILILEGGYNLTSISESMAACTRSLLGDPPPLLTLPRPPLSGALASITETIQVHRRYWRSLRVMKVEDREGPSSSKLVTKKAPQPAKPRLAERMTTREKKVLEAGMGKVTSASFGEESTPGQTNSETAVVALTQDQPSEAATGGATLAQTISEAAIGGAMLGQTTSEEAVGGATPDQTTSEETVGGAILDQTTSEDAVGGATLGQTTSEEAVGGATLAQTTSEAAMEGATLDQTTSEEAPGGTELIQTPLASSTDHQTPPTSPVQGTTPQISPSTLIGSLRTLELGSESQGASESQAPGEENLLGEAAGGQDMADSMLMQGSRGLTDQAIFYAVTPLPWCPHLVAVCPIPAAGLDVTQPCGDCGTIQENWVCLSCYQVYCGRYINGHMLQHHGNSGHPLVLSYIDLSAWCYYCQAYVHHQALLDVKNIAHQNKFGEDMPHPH
Protocol: (§1) To confirm the ability of NKL54, MC2984 and MC2985 to act as epigenetic drugs, we examined the levels of histone H3 lysine 9 acetylation (H3K9ac) by immunoblot. SAHA triggered an increase in H3K9 acetylation within 15 min of treatment (Figure 1G). […] The increase in H3K9ac in response to MC2985 treatment was very small, almost undetectable. […] Overall, the modulation of H3K9ac and of H3K27ac levels in response to the different compounds confirms the inhibitory potency observed with the KDAC assay in vivo. Finally, we compared the in vitro inhibitory activity of SAHA and of PAOA derivatives against different purified HDACs (NKL54 was chosen as an example). The inhibitory activity of NKL54 was specific to HDAC1/2/3 (Figure 1H). […] The Tanimoto coefficient is reported for all the compounds versus the reference BML-210. *Energy calculated on the re-docked ligand extracted from the 3MU6 complex available from PDB. **Tanimoto similarity index calculated with radius 2 circular Morgan fingerprints ([73]) in a python script ([74]) using the RDKit library ([75]). […] Cell death was scored after 48 h from treatments. […] Cell death was scored after 48 h from treatments. Data are from 3 independent experiments, + S.D. (F) Lys-deacetylase activity as measured from SK-UT-1 cells treated with increasing concentrations of the indicated compounds [1, 5, 10 μM]. […]

[4] = target: T4, HDAC8 (Homo sapiens, UniProt Q9BY41); assay: biochemical; design: in vitro inhibition of purified HDAC isozymes, dose response
T4 sequence (Q9BY41 1-377): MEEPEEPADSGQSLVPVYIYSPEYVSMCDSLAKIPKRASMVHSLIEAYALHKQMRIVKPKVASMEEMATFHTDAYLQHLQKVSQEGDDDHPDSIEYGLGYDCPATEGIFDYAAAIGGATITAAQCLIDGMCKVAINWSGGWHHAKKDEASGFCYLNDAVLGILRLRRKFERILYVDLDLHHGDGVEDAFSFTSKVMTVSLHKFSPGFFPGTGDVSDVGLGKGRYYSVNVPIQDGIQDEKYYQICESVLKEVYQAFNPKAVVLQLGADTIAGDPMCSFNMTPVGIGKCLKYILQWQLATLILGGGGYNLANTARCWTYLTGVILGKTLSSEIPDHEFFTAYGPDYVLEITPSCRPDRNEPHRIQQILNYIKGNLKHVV
Protocol: as §1

[5] = target: HDAC4 (Homo sapiens, UniProt P56524); assay: fluorogenic deacetylase assay, trypsin-coupled AMC release; type: biochemical
[6] = target: T5, HDAC3 (Homo sapiens, UniProt O15379); assay: as above; type: biochemical
T5 construct: purchased from BPS Bioscience; with Nuclear receptor corepressor 2
T5 sequence (O15379 whole entry): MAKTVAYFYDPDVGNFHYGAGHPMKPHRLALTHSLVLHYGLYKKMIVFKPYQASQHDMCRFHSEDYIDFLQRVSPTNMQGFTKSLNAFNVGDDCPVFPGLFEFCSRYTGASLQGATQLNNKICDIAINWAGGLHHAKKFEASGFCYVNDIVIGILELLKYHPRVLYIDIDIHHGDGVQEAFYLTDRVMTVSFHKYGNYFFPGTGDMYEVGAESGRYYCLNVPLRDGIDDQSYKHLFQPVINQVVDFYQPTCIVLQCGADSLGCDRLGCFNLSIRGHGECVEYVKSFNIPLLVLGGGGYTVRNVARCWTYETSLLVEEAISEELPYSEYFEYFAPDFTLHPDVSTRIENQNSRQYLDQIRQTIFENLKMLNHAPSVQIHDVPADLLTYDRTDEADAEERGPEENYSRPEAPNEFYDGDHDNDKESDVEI

T1 sequence (Q13547 whole entry): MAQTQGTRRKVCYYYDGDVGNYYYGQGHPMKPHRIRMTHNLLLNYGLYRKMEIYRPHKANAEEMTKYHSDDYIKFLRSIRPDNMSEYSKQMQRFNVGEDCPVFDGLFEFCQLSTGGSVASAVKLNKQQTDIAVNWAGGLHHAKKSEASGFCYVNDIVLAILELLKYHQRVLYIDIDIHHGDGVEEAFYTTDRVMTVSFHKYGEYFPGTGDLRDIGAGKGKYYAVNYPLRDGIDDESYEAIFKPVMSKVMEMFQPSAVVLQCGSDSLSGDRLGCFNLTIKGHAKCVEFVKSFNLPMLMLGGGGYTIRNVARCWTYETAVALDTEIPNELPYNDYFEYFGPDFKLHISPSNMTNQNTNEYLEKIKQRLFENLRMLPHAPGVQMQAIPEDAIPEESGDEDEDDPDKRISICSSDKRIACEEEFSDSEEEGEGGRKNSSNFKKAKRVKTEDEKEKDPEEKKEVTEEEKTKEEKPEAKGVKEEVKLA
T2 sequence (Q92769 whole entry): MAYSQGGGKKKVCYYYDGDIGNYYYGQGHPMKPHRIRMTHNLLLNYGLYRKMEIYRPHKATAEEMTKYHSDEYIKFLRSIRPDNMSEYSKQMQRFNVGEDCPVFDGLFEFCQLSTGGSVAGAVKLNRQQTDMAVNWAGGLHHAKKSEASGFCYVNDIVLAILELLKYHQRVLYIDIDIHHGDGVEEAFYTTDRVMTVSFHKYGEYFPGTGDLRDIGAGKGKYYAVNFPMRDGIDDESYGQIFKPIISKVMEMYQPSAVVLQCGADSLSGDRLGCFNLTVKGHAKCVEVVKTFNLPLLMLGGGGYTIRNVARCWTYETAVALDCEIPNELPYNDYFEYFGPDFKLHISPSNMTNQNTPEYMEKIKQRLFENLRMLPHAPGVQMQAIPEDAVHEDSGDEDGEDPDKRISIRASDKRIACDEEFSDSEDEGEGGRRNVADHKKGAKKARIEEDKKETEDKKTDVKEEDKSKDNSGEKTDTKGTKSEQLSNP
Sequence of HDAC4 (P56524 648-1057 limits assumed): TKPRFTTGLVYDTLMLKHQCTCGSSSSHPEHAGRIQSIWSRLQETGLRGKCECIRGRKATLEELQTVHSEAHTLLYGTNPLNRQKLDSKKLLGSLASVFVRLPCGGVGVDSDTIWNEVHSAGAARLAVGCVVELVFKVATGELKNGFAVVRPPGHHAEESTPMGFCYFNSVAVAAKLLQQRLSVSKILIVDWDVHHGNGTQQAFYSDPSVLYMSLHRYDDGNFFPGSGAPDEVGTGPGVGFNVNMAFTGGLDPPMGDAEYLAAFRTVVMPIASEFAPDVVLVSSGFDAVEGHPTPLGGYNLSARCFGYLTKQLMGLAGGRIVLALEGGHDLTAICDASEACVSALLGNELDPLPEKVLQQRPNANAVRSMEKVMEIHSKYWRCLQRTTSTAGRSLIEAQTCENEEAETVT

IC50 [1]: 0.084 ± 0.004 µM
IC50 [2]: 0.176 ± 0.005 µM
IC50 [3]: > 50 µM
IC50 [4]: > 50 µM
IC50 [5]: 35 µM
IC50 [6]: 0.047 ± 0.002 µM
SMILES: Nc1ccccc1NC(=O)CCCCCC(=O)Nc1cccc(C(F)(F)F)c1 [NKL54, N-(2-aminophenyl)-N'-[3-(trifluoromethyl)phenyl]heptanediamide]
